Data taken from patent US7105529B2, “Substituted oxindole derivatives as protein tyrosine and as protein serine/threonine kinase inhibitors and compositions and methods of treating chemotherapy and radiation therapy side effects” (SmithKline Beecham Corporation, priority 1997, dated 2006).

Key:
CDK2 = CDK2 (Homo sapiens, UniProt P24941); assay: CDK2 substrate phosphorylation assay; type: biochemical
Description: CDK1 and CDK2 were both expressed utilizing a baculovirus expression system and were partially purified to comprise 20–80% of total protein, with no detectable competing reactions present. […] Reactions were terminated with 0.2–2 volumes of either 20% acetic acid or 50–100 mM EDTA buffered to pH 7 (substrate consumption <20%). The buffer employed in enzyme assays was either 30 mM HEPES 7.4 containing 0.15 M NaCl and 5% DMSO, the buffer 50 mM MOPS 7.0 containing 0.15 M NaCl and 5% DMSO, or the buffer 100 mM HEPES pH 7.5 containing 0.1 mg/mL BSA and 5% DMSO. Inhibitors were diluted in 100% DMSO prior to addition into the assay. Detection of peptide phosphorylation was accomplished by scintillation counting following either collection of peptide onto phosphocellulose filters (for reactions stopped with acetic acid), collection of peptide in wells of 96 well plates coated with Streptavidin (Pierce) (reactions were stopped with EDTA), or addition of Avidin coated Scintillant impregnated beads (Scintillation Proximity Assays from Amersham, reactions were stopped with EDTA).
CDK1 and CDK2 were both expressed utilizing a baculovirus expression system and were partially purified to comprise 20–80% of total protein, with no detectable competing reactions present. […]

[1] = tested on: RKO colon adenocarcinoma cells; assay: FACS assay (cell death), RKO; type: cell-based; conditions: Homo sapiens; 50% cell death, 72 h
Description: (§1) These assays allow determination of both cell death and changes in cell cycle profile in cells following treatment of the compound. The assay is performend as follows: • 1. Cells are incubated in DMEM to which 10% FCS has been added in a humidified incubator at 37° C. and 5% by volume of CO2 in air. The cells are innoculated in 6-well plates at a density of 0.5–5×10^5 cells per well. • 2. The test compound is added in serial dilutions 24–36 h after plating in 0.5% DMSO. The plates are then incubated a further 72 h in the presence of the compound. During this time, cells in control cultures undergo at least three cell divisions. • 3. After incubation, the media is collected and cells are harvested by trypsinization. The cells and media are pooled and pelleted by centrifugation. • 4. The cell pellet is fixed in a final volume of 3 mL of 50% ice cold MeOH and incubated for a minimum of 30 min at −20° C. • 5. The cells are pelleted by centrifugation and resuspended in 0.5 mL PBS containing 1%FCS, […] Propidium Iodide (PI) and […] RNase A and incubated 30 min at 37° C. in the dark. • 6. The samples are analysed by flow cytometry using the relative incorporation of PI as a measure of DNA content of each cell. The % Dead cells is recorded as % of events with less than 2N DNA. […] HDF are normal diploid fibroblast cells. […]

UL97 = biological target: T1, UL97 (Human cytomegalovirus, UniProt P16788); assay: UL97 protein kinase assay (32P transfer to histone H2B); type: biochemical
T1 construct: GST; made in house; host or cells: sf9 cells (baculovirus vector)
Description: UL97 was produced as a GST fusion protein from a baculovirus vector expressed in sf9 cells as described by He (He, et al., Journal of Virology 1997, 71, 405–11). UL97 was assayed as a protein kinase using ^32P transfer from ATP to histone H2B with detection of radiolabeled histone bound to phosphocellulose. Assay mixes for testing inhibitors of UL97 activity contained 2 mM [γ^32P]-ATP, 15 mM histone H2B, 50 mM sodiumCHES, pH 9.5, 1 M NaCl, 2 mM dithiothreitol and 10 mM MgCl2. Inhibitors were dissolved in diluted DMSO to give a final DMSO concentration in the reaction of 1% DMSO. After incubation at 20° C., the reactions were terminated by addition of 10 volumes of 75 mM phosphoric acid, 30 mM ATP, 1 mM EDTA, then were spotted onto phosphocellulose filters and washed four times with 75 mM phosphoric acid. Radioactivity was determined by liquid scintillation counting.

cSrc = cSrc (Homo sapiens, UniProt P12931); assay: Src kinase assay (ELISA or isotope format); type: biochemical
Description: The peptide substrates used in Src and Lck assays were biotin-aminohexyl-EEIYGEF-NH2 (Src) and biotin-aminohexyl-[…]-NH2 (Lck). The src and Ick proteins were purified to homogeneity from a baculovirus expression system and preactivated before adding to assay mixtures. The maximum activation was achieved by incubating concentrated enzyme ([…]) on ice for 40 min in the presence of 1 mM ATP and 10 mM MgCl2 in 100 mM HEPES, pH 7.5. The activated enzyme was diluted to 2 nM into a […] reaction mixture containing 100 mM HEPES, pH 7.5, 5 mM ATP, 10 mM MgCl2, 2 mM peptide, 0.05 mg/mL BSA, and an inhibitor at varying concentrations and with or without 8 mCi/mL [γ-^33P]ATP dependent upon the method of analysis for the extent of reaction. The controls were reactions in the presence (negative controls) or absence (positive controls) of 50 mM EDTA. Reactions were allowed to proceed for 30 min at room temperature and quenched with addition of EDTA to 50 mM in […]. The extent of reactions was analyzed in one of the two ways: an Elisa-based and a radioactive isotope-based. The quenched samples ([…]) were transferred to a neutravidin coated plate (Perice) and incubated at room temperature for 40 min to allow biotinylated peptide to bind to neutravidin. […] The plate was read at A625 in a plate reader. […] The plate was sealed and counted in a micro-b-counter (Wallac). […]

VEGFR-2 = VEGFR-2 (Homo sapiens, UniProt P35968); assay: VEGFR-2 kinase assay; type: biochemical; conditions: read-out: VEGFR2 (IC50)
Description: The kinase domain of the enzyme was purified to homogeneity from a baculovirus expression system. The enzyme was preactivated on ice for 15 min in the presence of 100 μM ATP and 20 mM MgCl2, and stored at −80° C. until needed for assay. The activated enzyme was diluted to 0.4 nM into a 60 μl reaction containing 100 mM HEPES, pH 7.5, 5 μM ATP, 10 mM MgCl2, 5 μM peptide, 0.1 mM DTT, 0.05 mg/ml BSA, and an inhibitor at varying concentrations. The controls were reactions in the presence (negative controls) or absence (positive controls) of 50 mM EDTA. Reactions were incubated for 30 min at room temperature, and then quenched by the addition of EDTA to 60 mM in 210 μl. The quenched samples (190 μl) were transferred to a neutravidin-coated plate (Pierce) and incubated at room temperature for 40 min to allow biotinylated peptide to bind to the neutravidin. The unbound components of the reaction were removed by washing with a plate washer, then 200 μl HRP-PY20 anti-phosphotyrosine antibody conjugate was added to each well. After incubation for 40 min, the plate was washed to remove any unbound anitbody. A HRP substrate, K-blue (Neogen) was added and the reaction was quenched with Red Stop (Neogen) after 20 min. The absorbance of the wells was read at A650 in a plate reader. IC50 values were obtained by fitting raw data to A650=VMAX*(1−[I]/IC50+[I])))+b, where b is background.

Lck = Lck (Homo sapiens, UniProt P06239); assay: Lck kinase assay (ELISA or isotope format); type: biochemical
Description: The src and Ick proteins were purified to homogeneity from a baculovirus expression system and preactivated before adding to assay mixtures. The maximum activation was achieved by incubating concentrated enzyme (10–30 mM) on ice for 40 min in the presence of 1 mM ATP and 10 mM MgCl2 in 100 mM HEPES, pH 7.5. The activated enzyme was diluted to 2 nM into a 50-mL reaction mixture containing 100 mM HEPES, pH 7.5, 5 mM ATP, 10 mM MgCl2, 2 mM peptide, 0.05 mg/mL BSA, and an inhibitor at varying concentrations and with or without 8 mCi/mL [γ-^33P]ATP dependent upon the method of analysis for the extent of reaction. The controls were reactions in the presence (negative controls) or absence (positive controls) of 50 mM EDTA. Reactions were allowed to proceed for 30 min at room temperature and quenched with addition of EDTA to 50 mM in 220 mL. The extent of reactions was analyzed in one of the two ways: an Elisa-based and a radioactive isotope-based. The quenched samples (200 mL) were transferred to a neutravidin coated plate (Perice) and incubated at room temperature for 40 min to allow biotinylated peptide to bind to neutravidin. The unbound peptide and the rest of the solution was washed away using a plate washer. […] The plate was read at A625 in a plate reader. […] The plate was sealed and counted in a micro-b-counter (Wallac). […]

MES/SA cells = assay: FACS assay (cell death), MES/SA; type: cell-based; conditions: Homo sapiens, 50% cell death, 72 h
Description: as §1

Chain of Lck (P06239 whole entry): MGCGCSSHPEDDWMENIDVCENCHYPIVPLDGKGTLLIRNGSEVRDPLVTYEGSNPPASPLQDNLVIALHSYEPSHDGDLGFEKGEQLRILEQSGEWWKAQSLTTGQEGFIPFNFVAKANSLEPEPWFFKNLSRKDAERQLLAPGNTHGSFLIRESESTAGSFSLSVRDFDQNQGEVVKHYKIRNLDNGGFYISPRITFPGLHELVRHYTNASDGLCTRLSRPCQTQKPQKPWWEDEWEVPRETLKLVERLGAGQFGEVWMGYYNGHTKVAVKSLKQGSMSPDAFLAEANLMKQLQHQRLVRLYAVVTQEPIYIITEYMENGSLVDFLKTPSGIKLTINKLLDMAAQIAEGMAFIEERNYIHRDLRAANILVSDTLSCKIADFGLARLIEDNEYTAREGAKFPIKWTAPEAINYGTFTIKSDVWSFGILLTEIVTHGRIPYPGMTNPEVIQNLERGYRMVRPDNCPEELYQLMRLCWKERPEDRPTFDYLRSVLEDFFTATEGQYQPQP
Chain of VEGFR-2 (P35968 834-1162 limits assumed): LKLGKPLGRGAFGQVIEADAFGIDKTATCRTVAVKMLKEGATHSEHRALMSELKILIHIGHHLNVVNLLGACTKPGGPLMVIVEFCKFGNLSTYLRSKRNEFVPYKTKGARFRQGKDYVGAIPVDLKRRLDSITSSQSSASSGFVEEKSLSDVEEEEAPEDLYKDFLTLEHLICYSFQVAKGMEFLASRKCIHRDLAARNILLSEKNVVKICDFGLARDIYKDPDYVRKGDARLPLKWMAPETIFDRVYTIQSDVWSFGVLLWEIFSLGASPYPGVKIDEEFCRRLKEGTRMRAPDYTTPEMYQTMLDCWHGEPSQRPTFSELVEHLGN
Chain of cSrc (P12931 whole entry): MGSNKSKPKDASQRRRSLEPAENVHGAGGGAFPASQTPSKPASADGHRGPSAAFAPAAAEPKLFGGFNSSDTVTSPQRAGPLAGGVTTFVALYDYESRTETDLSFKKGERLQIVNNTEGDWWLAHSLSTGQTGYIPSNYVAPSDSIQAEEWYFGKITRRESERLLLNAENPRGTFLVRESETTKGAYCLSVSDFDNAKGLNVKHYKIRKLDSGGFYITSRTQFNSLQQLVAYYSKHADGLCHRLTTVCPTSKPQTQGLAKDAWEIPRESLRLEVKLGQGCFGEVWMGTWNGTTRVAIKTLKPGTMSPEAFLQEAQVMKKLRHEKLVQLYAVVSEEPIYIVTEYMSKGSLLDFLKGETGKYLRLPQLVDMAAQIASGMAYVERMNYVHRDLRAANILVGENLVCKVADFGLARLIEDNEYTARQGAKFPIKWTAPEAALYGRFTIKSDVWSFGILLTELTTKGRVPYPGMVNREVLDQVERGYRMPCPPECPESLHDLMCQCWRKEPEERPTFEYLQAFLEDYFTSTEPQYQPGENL
T1 sequence (P16788 whole entry): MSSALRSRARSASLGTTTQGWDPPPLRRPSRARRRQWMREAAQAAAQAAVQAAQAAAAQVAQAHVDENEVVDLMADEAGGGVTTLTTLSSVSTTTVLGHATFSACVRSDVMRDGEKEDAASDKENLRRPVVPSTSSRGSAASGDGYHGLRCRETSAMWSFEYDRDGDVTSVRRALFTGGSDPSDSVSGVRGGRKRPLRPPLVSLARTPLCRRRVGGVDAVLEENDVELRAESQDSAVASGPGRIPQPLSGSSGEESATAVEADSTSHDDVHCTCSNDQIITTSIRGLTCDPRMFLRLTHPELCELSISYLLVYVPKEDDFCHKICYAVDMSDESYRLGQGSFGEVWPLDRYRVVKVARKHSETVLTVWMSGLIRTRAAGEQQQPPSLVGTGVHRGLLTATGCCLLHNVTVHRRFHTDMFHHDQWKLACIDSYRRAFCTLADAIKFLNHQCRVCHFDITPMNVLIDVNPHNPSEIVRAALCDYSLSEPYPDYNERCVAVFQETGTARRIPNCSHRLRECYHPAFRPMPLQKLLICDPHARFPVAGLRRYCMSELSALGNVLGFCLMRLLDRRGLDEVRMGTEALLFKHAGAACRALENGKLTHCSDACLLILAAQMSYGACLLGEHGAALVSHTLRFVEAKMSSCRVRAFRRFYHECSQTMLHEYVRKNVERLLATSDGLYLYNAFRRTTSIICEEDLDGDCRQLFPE

Structure (SMILES) | IC50 (CDK2) [nM] | IC50 [1] [nM] | IC50 (UL97) [nM] | IC50 (cSrc) [nM] | IC50 (VEGFR-2) [nM] | IC50 (Lck) [nM] | IC50 (MES/SA cells) [nM]
COC(=O)c1ccc2c(c1)/C(=C/Nc1ccc(S(N)(=O)=O)cc1)C(=O)N2 [Example 27] | 1 to 10 | 1100 to 5000 |  |  |  |  | 
NS(=O)(=O)c1ccc(NN=C2C(=O)Nc3ccc(-c4cnco4)cc32)cc1 [Example 36] |  |  | 11 to 50 | > 100 | > 100 | > 100 | 100 to 500
